Data on two compounds can be found in ChEMBL document CHEMBL4229384, “Success stories of natural product-based hybrid molecules for multi-factorial diseases” (Eur J Med Chem, 2018).

Experiment [1] is described as follows: Antioxidant activity assessed as reduction in oxidative stress. Format: functional.
Experiment [2] addresses Amyloid-beta precursor protein (Homo sapiens, UniProt P05067). Description: Inhibition of beta amyloid (unknown origin) deposition.
Experiment [3] deals with DNA. Briefly: Binding affinity to human estrogen receptor DNA assessed as estrogen receptor PCR product formation. Format: nucleic-acid assay.
Experiment [4] addresses DNA. Description: Binding affinity to Ha-ras DNA (unknown origin) assessed as Ha-ras PCR product formation. Format: nucleic-acid assay.

Chain of Amyloid-beta precursor protein (P05067 whole entry): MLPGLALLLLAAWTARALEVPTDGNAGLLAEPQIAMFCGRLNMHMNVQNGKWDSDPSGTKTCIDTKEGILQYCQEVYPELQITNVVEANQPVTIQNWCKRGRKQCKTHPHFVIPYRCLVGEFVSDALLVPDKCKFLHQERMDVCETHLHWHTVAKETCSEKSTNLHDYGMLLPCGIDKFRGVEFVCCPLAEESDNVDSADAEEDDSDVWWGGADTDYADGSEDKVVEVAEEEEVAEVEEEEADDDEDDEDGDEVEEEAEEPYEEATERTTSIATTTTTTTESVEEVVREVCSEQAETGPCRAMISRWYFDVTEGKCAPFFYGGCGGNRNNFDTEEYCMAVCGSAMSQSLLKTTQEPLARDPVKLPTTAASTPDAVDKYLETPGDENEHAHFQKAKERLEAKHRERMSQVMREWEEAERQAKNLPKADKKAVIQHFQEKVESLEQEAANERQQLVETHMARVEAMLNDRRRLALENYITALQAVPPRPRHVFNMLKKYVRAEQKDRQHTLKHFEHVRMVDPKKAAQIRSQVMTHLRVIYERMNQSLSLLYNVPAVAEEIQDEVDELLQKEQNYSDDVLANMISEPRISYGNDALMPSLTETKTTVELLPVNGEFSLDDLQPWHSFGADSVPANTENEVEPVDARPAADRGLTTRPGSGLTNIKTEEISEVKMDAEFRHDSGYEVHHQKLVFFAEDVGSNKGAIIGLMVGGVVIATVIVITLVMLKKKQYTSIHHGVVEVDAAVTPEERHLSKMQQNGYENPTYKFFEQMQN

For `O=C(CCCCC1CCSS1)NCCCNc1c2c(nc3cc(Cl)ccc13)CCCC2` (centres undefined) [LIPOCRINE], the IC50 came out at 10 µM in experiment [1] and 45 µM in experiment [2].
For `COc1cc2c(cc1OCCC(=O)Nc1cc(C(=O)Nc3cc(C(=O)Nc4cc(C(=O)NCCC(=N)N)n(C)c4)n(C)c3)n(C)c1)N=C[C@@H]1CCCN1C2=O`, the IC50 at DNA [3] and on DNA [4] was 8 µM throughout.
